These are literature values, as cited in patent publication US20050025804A1, “Reduction of adverse inflammation” (priority 2003, published 2005).

For this data set the following is noted: peroxynitrite decomposition catalyst.

With `CC(=O)[O-].Cc1c(-c2c3nc(c(-c4c(C)c(S(=O)(=O)[O-])c(C)c(S(=O)(=O)[O-])c4C)c4ccc([n-]4)c(-c4c(C)c(S(=O)(=O)[O-])c(C)c(S(=O)(=O)[O-])c4C)c4nc(c(-c5c(C)c(S(=O)(=O)[O-])c(C)c(S(=O)(=O)[O-])c5C)c5ccc2[n-]5)C=C4)C=C3)c(C)c(S(=O)(=O)[O-])c(C)c1S(=O)(=O)[O-].[Fe+3].[Na+].[Na+].[Na+].[Na+].[Na+].[Na+].[Na+].[Na+]` [Fe(III)TMPS, acetato-5,10,15,20-tetrakis(3,5-disulfonatomesityl) porphyrin iron (III) octasodium salt], the rate constant was 2.06e+06 M⁻¹ s⁻¹.
With “acetato (5,10,15,20-tetrakis(N-methyl-4-pyridyl)porphinato) iron (III) tetratosylate [Fe(III)TMPyP]”, the rate constant is 2.75e+06 M⁻¹ s⁻¹.
